BindingDB's records for patent US20230365590 (Shenzhen Chipscreen Biosciences, 2023)

Biological target: Programmed cell death 1 ligand/protein 1 (Homo sapiens, UniProt Q15116+Q9NZQ7)
Assay: In Vitro Inhibitory Activity Against PD-1/PD-L1 Binding
Experimental: The experiment process was carried out according to the flow required in the operating manual of the test reagent.The process was as follows:(1) Experiment preparation: A test compound was diluted to different concentration gradients with the dilution buffer (the highest final concentration in a 20 μL final reaction system was 10 μM). The His-PD-1 protein was diluted to 800 nM (the final concentration in the 20 final reaction system was 100 nM). The PD-L1-Fc fusion protein was diluted to 16 nM (the final concentration was 2 nM). […] All tests were conducted by use of multiple holes.(4) The fluorescence detector Tecan (Spark 10M) was used to detect the fluorescence signal of each hole. The excitation wavelength was 320 nm, and the emission wavelengths for detection were 620 nm and 665 nm, respectively. The strength of PD-1/PD-L1 binding refers to a fluorescence signal ratio Em665/Em620.(5) Calculation formula of binding inhibition rate of test compound: Inhibition rate (%)=[1−(fluorescence signal ratio of detected hole−fluorescence signal ratio of 100% inhibition negative control)]/(fluorescence signal ratio of 0% inhibition positive control−fluorescence signal ratio of 100% inhibition negative control)×100%. […]

Sequence of Programmed cell death 1 ligand/protein 1 (Q9NZQ7 whole entry): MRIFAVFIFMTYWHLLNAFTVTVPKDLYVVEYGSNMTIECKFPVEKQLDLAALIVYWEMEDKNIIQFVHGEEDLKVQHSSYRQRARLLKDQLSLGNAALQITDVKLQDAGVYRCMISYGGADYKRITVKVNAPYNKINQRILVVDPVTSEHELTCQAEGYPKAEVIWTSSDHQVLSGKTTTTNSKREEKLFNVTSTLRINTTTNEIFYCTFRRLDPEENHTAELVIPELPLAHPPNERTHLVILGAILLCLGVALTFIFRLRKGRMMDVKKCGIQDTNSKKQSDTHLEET
Sequence of Programmed cell death 1 ligand/protein 1 (Q15116 whole entry): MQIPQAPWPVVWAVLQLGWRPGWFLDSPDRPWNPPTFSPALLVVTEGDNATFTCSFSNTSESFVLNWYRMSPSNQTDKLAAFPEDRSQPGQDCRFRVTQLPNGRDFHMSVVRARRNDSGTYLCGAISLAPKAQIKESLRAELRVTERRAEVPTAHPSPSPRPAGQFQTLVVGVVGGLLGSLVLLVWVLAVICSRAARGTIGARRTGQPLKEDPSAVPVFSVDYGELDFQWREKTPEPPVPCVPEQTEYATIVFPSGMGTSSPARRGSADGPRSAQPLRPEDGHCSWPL

COCC12CCC(CCN3CCc4c(nc(C(=O)Nc5cccc(-c6cccc(NC(=O)c7nc8c(n7C)CCN(CCC79CCC(C(=O)O)(CC7)C9)C8)c6Cl)c5Cl)n4C)C3)(CC1)C2 [US20230365590, Compound I-6]
IC50: 1.17 nM
